Results taken from US20130014428A1, “METHODS OF MONITORING AND CONTROLLING THE WALNUT TWIG BEETLE, PITYOPHTHORUS JUGLANDIS” (The United States of America as Represented by the …, priority 2011, published 2013).

Tested on: WTB
Assay: Trap type: four Lindgren funnel traps and intercept panel trap baited with X
Assay type: in vivo, Pityophthorus juglandis
Details: for trap catches, female WTB / trap catches, male WTB: 15-80 mg/d
Method: In another set of experiments, the flight response of WTB to four types of Lindgren funnel traps (Contech) and an intercept panel trap (Alpha Scents Inc., Portland Oreg., product # AST0031) was tested at Wolfskill Experimental Orchards in mid-summer. Each trap was baited with the commercial formulation of 3-methyl-2-buten-1-ol (15-80 mg/d, Contech) hung inside the middle funnel of each funnel trap or in a recess in the middle of the cross vane panels of the panel trap. Each trap cup was filled with propylene glycol as described above and the traps were suspended from the top of a 3 m metal conduit pole. Three blocks of traps were installed and trap catches were collected daily when the flight activity was high. The five treatments were re-randomized among the five trap stations within each of the three blocks each time that the traps were emptied.
Statistical Analyses. Analyses of treatment effects for the tests of trap type were performed by using Friedman's non-parametric analysis of variance or a sign test, depending on the number of treatments. (See Zar, J. H. 2010. Biostatistical Analysis. 5th ed. Pearson Prentice Hall, Englewood Cliffs, N.J.) Analysis of treatment effects for the Rain•X experiment was performed by using a Wilcoxon paired sample test. Id. Multiple comparisons for experiments with more than two treatments were performed with an a posteriori Nemenyi test with experimentwise α=0.05. Id. In all cases, male and female WTB were analyzed separately. Proportions of female WTB responding to treatments were calculated and 95% confidence intervals determined by using the Clopper-Pearson method. Id.

For `CC(C)=CCO` [X, 3-methyl-2-buten-1-ol], the “trap catches, female WTB” value (4-unit Lindgren funnel trap) was 231, the “trap catches, male WTB” value (4-unit Lindgren funnel trap) was 72 and the “proportion of females responding” value (4-unit trap) was 0.76. For the same molecule, the “proportion of females responding” value (8-unit trap) was 0.76, the “trap catches, female WTB” value (8-unit trap) was 634 and the “trap catches, male WTB” value (8-unit trap) was 202. For the same molecule, the “proportion of females responding” value (12-unit trap) was 0.72, the “trap catches, female WTB” value (12-unit trap) was 892 and the “trap catches, male WTB” value (12-unit trap) was 352. The “proportion of females responding” value (16-unit trap) was 0.73, the “trap catches, female WTB” value (16-unit trap) was 618 and the “trap catches, male WTB” value (16-unit trap) was 233. The “trap catches, female WTB” value (intercept panel trap) was 296, the “trap catches, male WTB” value (intercept panel trap) was 128 and the “proportion of females responding” value (panel trap) was 0.70.
